Legend:
Mino cells = experiment: Inhibitory activity on Mino cell proliferation (MTS); type: cell-based; conditions: Homo sapiens, 168 h incubation
Outline: (§1)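 Cells seeded at 10000/well, treated with compounds from 1000 nM (4-fold, 8 points) for 72 h (OCI-LY10) or 168 h (Mino) at 37° C. MTS added for 2 h, stopped with SDS, absorbance read at 490 and 650 nm; IC50 from dose-response fit.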

OCI-LY10 cells = experiment: Inhibitory activity on OCI-LY10 cell proliferation (MTS); type: cell-based; conditions: Homo sapiens, 72 h
Outline: as §1

[1] = Mouse absorption test (pharmacokinetic properties in mice); type: in vivo; conditions: intragastric, 30 mg/kg; for DNAUC: DNAUC = AUC/Dose; for Cmax: mouse, plasma, po
Protocol: […] The blood collection time points for intragastric administration were 0.25, 0.5, 1, 2, 4, 6, 8, and 24 h. 0.5 mL of blood was taken with a capillary tube from the orbit, and placed in an EP tube containing EDTA anticoagulant. The EP tube was shaken gently for mixing uniformly, and centrifuged at 3500 rpm and 4° C. for 10 min. The supernatant, i.e., plasma, was taken. Analysis was performed using LC-MS/MS.

BTK-C481S = biological target: T1, BTK-C481S (Homo sapiens, UniProt Q06187, C481S); experiment: BTK-C481S degradation activity test in HEK293 OE BTK-C481S cells; type: cell-based; conditions: 24 h incubation, Western blot or Elisa
T1 construct: expressed in transfected cells; host or cells: HEK293 OE BTK-C481S (overexpressing) cell line
T1 sequence (Q06187 whole entry C481S): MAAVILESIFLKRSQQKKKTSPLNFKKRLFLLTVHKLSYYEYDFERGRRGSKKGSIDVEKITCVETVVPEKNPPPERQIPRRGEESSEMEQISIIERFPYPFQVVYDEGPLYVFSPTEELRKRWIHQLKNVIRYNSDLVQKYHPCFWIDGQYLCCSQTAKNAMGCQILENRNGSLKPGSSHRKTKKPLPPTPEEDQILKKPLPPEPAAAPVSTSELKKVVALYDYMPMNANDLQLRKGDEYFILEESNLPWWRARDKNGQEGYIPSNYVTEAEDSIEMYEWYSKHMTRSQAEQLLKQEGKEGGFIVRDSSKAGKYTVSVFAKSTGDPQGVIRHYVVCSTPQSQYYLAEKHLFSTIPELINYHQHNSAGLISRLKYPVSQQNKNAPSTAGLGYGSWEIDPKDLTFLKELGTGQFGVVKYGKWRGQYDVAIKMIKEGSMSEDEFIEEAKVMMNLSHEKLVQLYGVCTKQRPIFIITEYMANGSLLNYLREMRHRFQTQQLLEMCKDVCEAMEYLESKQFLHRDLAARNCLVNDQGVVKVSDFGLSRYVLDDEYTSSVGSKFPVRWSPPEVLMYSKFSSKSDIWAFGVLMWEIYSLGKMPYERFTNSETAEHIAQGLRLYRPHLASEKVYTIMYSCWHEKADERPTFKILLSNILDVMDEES
Protocol: HEK293 OE BTK-C481S cell line cells were seeded at 500,000 to 1,000,000 cells/well in a 6-well plate. The compounds were diluted to different concentrations and added to the plate, and after 24 h of incubation, the cells were harvested. After lysing the cells, the total protein concentration in each well was determined using the BCA method. The amount of BTK-C481S was determined using Western blot or Elisa method. The amount of undegraded BTKC481S protein at each drug concentration was compared with the amount of BTKC481S protein in the blank control group to calculate the degradation rate. The degradation curve was drawn based on the degradation rate at each concentration, and the half degradation concentration (DC50) was calculated by fitting.

[2] = test system: OCL-LY10 transplanted tumors; experiment: Chronic efficacy test, OCL-LY10 subcutaneous transplanted tumor model; type: in vivo; conditions: NOD/SCID mice, intragastric 10 mg/kg, 3 weeks
Protocol: NOD/SCID mice were subcutaneously inoculated with OCL-LY10 cells to establish a tumor model. When the tumors grew to about 100 mm^3, the mice were administered with drugs in groups. The mode of administration was as follows: the test compound was administered intragastrically at 10 mg/kg; The changes in body weight and tumor size of the mice were measured twice per week. After 3 weeks, the mice were sacrificed by cervical dislocation, and the efficacy of the compounds on transplanted tumors in OCL-LY10 mice was examined.

BTK = biological target: T2, BTK (Homo sapiens, UniProt Q06187); experiment: BTK degradation activity test in Mino cells; type: cell-based; conditions: 16 h incubation, Western blot or Elisa
T2 construct: endogenous in cells; host or cells: Mino cells
T2 sequence (Q06187 whole entry): as the sequence (Q06187 whole entry C481S) above, with S481C counted along it
Outline: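 Mino cells treated with a concentration series of compound for 16 h, then lysed; total protein by BCA. BTK quantified by Western blot or ELISA, degradation rate calculated against blank control, and DC50 fitted from the degradation curve.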

B cell activation = experiment: Test of inhibition of B cell activation in PBMC (Anti-Human IgM stimulation, flow cytometry); type: cell-based; conditions: Anti-Human IgM 50 μg/mL, 18 h
Protocol: The PBMC cell cryopreservation liquid was resuspended in 1640 complete culture medium to an appropriate concentration, and inoculated into a 96-well round-bottom plate at 15×10^4 cells/90 μL/well, and the culture plate was placed in a CO2 incubator for incubation.
The compounds to be tested were formulated into 10 mM stock solutions which were then fold-serially diluted with DMSO, and then diluted with 1640 complete culture liquid to make the concentration 100 times of the final concentration. The compound diluent was added into the cell solution in each well at 1 μL/well and shaken gently. 2 duplicate wells were set up for each concentration. The dosed cell plate was placed in a 37° C. incubator with 5% carbon dioxide and incubated for 1 h.
3. The dosed cell culture plate was taken and 10 μL of Anti-Human IgM-UNLB was added into the well corresponding to the compound to be tested; in 2 groups of cell blank wells, only 10 μL of Anti-Human IgM-UNLB was added; and in 3 groups of cell blank wells, no reagents and antibodies were added. The final concentration of Anti-Human IgM-UNLB was 50 μg/mL.
4. The loaded cell culture plate was placed in a 37° C. incubator with 5% carbon dioxide and incubated for 18 h. Total system: 90 μL PBMC+1 μL compound+10 μL Anti-Human IgM-UNLB
5. Samples were collected and stained, and the cells were analyzed using flow cytometry to obtain data. (When analyzed using flow cytometry, lymphocytes were gated).

[3] = Stability of compounds in human liver microsome; type: in vitro ADME; conditions: human liver microsomes, NADPH, 37° C., sampling 0-120 min; read-out: Human liver microsome T1/2
Outline: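 Compound incubated at 37° C with human liver microsomes (1 mg in 1 mL PBS) plus NADPH. Samples taken at 0, 15, 30, 60 and 120 min, quenched into internal standard solution and analysed by LC/MS; metabolism calculated from peak area.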

[4] = Beagle dog absorption test (PK in dogs); type: in vivo; conditions: plasma, po, intragastric, 10 mg/kg
Protocol: Beagle dogs were used as experimental animals, and drugs were administered intragastrically at 10 mg/kg. The blood collection time points for intragastric administration were 0, 0.25, 0.5, 1, 2, 4, 6, 8, 10, 12, and 24 h. 1.0 mL of blood was collected from the jugular vein, placed in an EDTAK2 centrifuge tube, and placed on an ice bath, centrifuged at 5000 rpm and 4° C. for 10 min to obtain the supernatant, i.e., plasma. 0.1 ml of the plasma was taken for analysis by LC-MS/MS.

Row | Structure (SMILES) | IC50 (OCI-LY10 cells) | DNAUC [1] | Cmax ([1]; class symbols) | DC50 (BTK-C481S) | DC50 (BTK) | Cmax [1] | half-life at 0.97 µg/mL [3] | AUC [4] | IC50 (Mino cells) | TGI (%) [2] | Inhibition ratio % (B cell activation; concentration 0.16 nM) | Inhibition ratio % (B cell activation; concentration 0.80 nM)
1 | CN1CCN([C@@H]2CCCN(c3nnc(C(N)=O)c(Nc4ccc(N5CCN(C[C@@H]6CCN(c7ccc8c(c7)C(=O)N(C7CCC(=O)NC7=O)C8=O)C6)CC5)c(F)c4)n3)C2)C1=O (stereo partly drawn) [Compound 131, 5-((4-(4-(((3S)-1-(2-(2,6-dioxopiperidin-3-yl)-1,3-dioxoisoindolin-5-yl)pyrrolidin-3-yl)methyl)piperazin-1-yl)-3-fluorophenyl)amino)-3-((R)-3-(3-methyl-2-oxoimidazolin-1-yl)piperidin-1-yl)-1,2,4-triazin-6-carboxamide] | 0.9 nM | 3614 ng/ml*h/mpk |  | < 10 nM | < 1 nM | 6190 ng/mL | > 30 min |  | 3.61 nM | 96.67% | 60.8% | 100%
2 | CN1CCN([C@@H]2CCCN(c3nnc(C(N)=O)c(Nc4ccc(N5CCN(C[C@H]6CCN(c7ccc8c(c7)C(=O)N(C7CCC(=O)NC7=O)C8=O)C6)CC5)c(F)c4)n3)C2)C1=O (stereo partly drawn) [Compound 132, 5-((4-(4-(((3R)-1-(2-(2,6-dioxopiperidin-3-yl)-1,3-dioxoisoindolin-5-yl)pyrrolidin-3-yl)methyl)piperazin-1-yl)-3-fluorophenyl)amino)-3-((R)-3-(3-methyl-2-oxoimidazolin-1-yl)piperidin-1-yl)-1,2,4-triazin-6-carboxamide] | < 1 nM | 2430 ng/ml*h/mpk |  |  | < 1 nM | 7800 ng/mL | > 30 min | 1690 ng·h/mL | 2.55 nM |  |  | 
3 | NC(=O)c1ncc(N2CCCCC2)nc1Nc1ccc(C2CCN(C[C@H]3CCN(c4ccc5c(c4)C(=O)N(C4CCC(=O)NC4=O)C5=O)C3)CC2)cc1 (stereo partly shown) [Compound c, reference compound] |  |  |  |  |  |  |  | 246 ng·h/mL |  | 67.59% | 10.2% | 16.3%

Further molecules by falling IC50 (OCI-LY10 cells), results first:

Row | IC50 (OCI-LY10 cells) | DNAUC [1] | Cmax ([1]; class symbols) | DC50 (BTK-C481S) | DC50 (BTK) | Cmax [1] | half-life at 0.97 µg/mL [3] | AUC [4] | Structure (SMILES) | IC50 (Mino cells) | TGI (%) [2] | Inhibition ratio % (B cell activation; concentration 0.16 nM) | Inhibition ratio % (B cell activation; concentration 0.80 nM)
4 | 0.2 nM | 1920 ng/ml*h/mpk | > 6000 ng/mL | < 10 nM | < 1 nM |  |  |  | CN1CCN([C@@H]2CCCN(c3nnc(C(N)=O)c(Nc4ccc(C5CCN(CC6CCN(c7ccc8c(c7)C(=O)N(C7CCC(=O)NC7=O)C8=O)CC6)CC5)cc4)n3)C2)C1=O (stereo partly drawn) [Compound 123, 5-((4-(1-((1-(2-(2,6-dioxopiperidin-3-yl)-1,3-dioxoisoindolin-5-yl)piperidin-4-yl)methyl)piperidin-4-yl)phenyl)amino)-3-((R)-3-(3-methyl-2-oxoimidazolin-1-yl)piperidin-1-yl)-1,2,4-triazin-6-carboxamide] | 2.11 nM | 95.66% |  | 
5 | 0.12 nM |  |  | < 10 nM | < 1 nM |  | > 30 min | 6590 ng·h/mL | Cc1cc(N2CCC(CN3CCN(c4ccc(Nc5nc(N6CCC[C@@H](N7CCN(C)C7=O)C6)nnc5C(N)=O)cc4F)CC3)CC2)ccc1N1CCC(=O)NC1=O [Compound 257, (R)-5-((4-(4-((1-(4-(2,4-dioxotetrahydropyrimidin-1(2H)-yl)-3-methylphenyl)piperidin-4-yl)methyl)piperazin-1-yl)-3-fluorophenyl)amino)-3-(3-(3-methyl-2-oxoimidazolidin-1-yl)piperidin-1-yl)-1,2,4-triazin-6-carboxamide] | < 0.26 nM | 98.74% | 100% | 100%
